Measured values reported in a melting point compilation (Tetko et al.; mined from patent text by program, amines drawn as free bases though some values may be those of a salt).

Row | melting point | SMILES
1 | 149 to 152 °C | CCOC(=O)C(CC(C)C)NC(=O)C(Cc1ccccc1)NC(=O)CNC(=O)CNC(=O)C(Cc1ccc(OCc2ccccc2)cc1)NC(=O)OC(C)(C)C (stereo not given)
2 | 264 to 267 °C | Cc1nc(N)c2nc3n(c2c1C)C(C)COC3 (stereo not given)
3 | 255 to 257 °C | Cc1nc(=O)n(-c2cc(C(=O)OC(C)C)c(Cl)cc2F)c(N)c1C#N
4 | 132 to 135 °C | Nc1sc(-c2ccoc2)c(CN(C2CCCCC2)C2CCCCC2)c1C(=O)c1ccc(Cl)cc1
5 | 112 °C | CSc1ccc(-c2cn3c(c2-c2ccccc2)CCC3)cc1
6 | 49 to 50 °C | CCCCc1cccn1NS(=O)(=O)C1CCCC=C1C(=O)OCC (stereo not given)
7 | 70 to 71 °C | CC(C)=CCC/C(C)=C/COCC(=O)c1cc(C(C)C)c(O)c(C(C)C)c1
8 | 212 °C | NC(CF)(Cc1cc(O)ccc1O)C(=O)O (stereo not given)
9 | 260 to 262 °C | CC(C)(O)Cn1c(CO)nc2c(N)nc3cc(OCc4cscn4)ccc3c21
10 | 138 to 140 °C | Cc1ccc(O)c(NC(=O)c2ccc(OCCCCc3ccccc3)cc2)c1
11 | 169 °C | OC12CC3CC(C1)CC(O)(C3)C2
12 | 88 to 90 °C | CCOC(=O)C(=Cc1cscc1OC)N=[N+]=[N-]
13 | 151 to 153 °C | Nc1nc(NCCc2ccccc2OCc2ccccc2)nc2nc(-c3ccco3)nn12
14 | 147 to 151 °C | COC1OC(COCc2ccccc2)C(OCc2ccccc2)C(NC(C)=O)C1OCc1ccccc1 (stereo not given)
15 | 177 to 178 °C | CS(=O)c1ccc(CSc2nnc(-c3ccc4c(c3)CCO4)o2)cc1C(F)(F)F (stereo not given)
16 | 193 to 196 °C | Cc1ccc2nc(-c3ccc(-c4ccccc4)cc3)nc(C(=O)O)c2c1
17 | 82 to 85 °C | O=c1sc(=Nc2ccc(Cl)cc2)n2n1CCCC2
18 | 203 to 204 °C | O=C(Nc1ccc2c(c1)NCCC2)c1cc2cc(C(F)(F)F)ccc2n1Cc1cccc(F)c1
19 | 298 to 301 °C | O=[N+]([O-])c1ccc2c(c1)S(=O)(=O)N=C(NC1CCC1)N2

Row | melting point | SMILES
20 | 97 °C | Cn1nnc(-c2cccc(N)c2)n1
21 | 179 to 180 °C | O=C(NCc1cccnc1)Nc1cc(N2CC(c3ccccc3)CC2=O)ccn1 (stereo not given)
22 | 140 to 141 °C | CCN1CCN(CC)c2cc(N)ccc2C1=O
23 | 28.6 °C | CCCCCc1cnc(-c2ccc(F)cc2)nc1
24 | 253 to 256 °C | N#Cc1c[nH]c(C(N)=O)c1
25 | 187 to 188 °C | COc1cc(OC)nc(C2(C#N)OC(=O)c3c(-c4cccs4)ccnc32)n1 (stereo not given)
26 | 130 to 131 °C | COc1c(C)c2c(c(N)c1C/C=C(\C)CCC(=O)O)C(=O)OC2
27 | 211 to 212 °C | Cc1nnc(-c2ccc3ncn(-c4ccc(OC(F)(F)F)c(Cl)c4)c3c2)o1
28 | 255 to 256 °C | CCOC(=O)c1cn2c3c(c(F)c(F)cc3c1=O)OCC21CCC1
29 | 212 °C | COc1nc(N)nc(Cl)c1C1=NCCN1
30 | 124 °C | CCCN(C(C)C)C1COc2cccc(C(=O)NC(C)C)c2C1 (stereo not given)
31 | 287 to 288 °C | CC(C)(C)C(=O)Nc1nc(Nc2cccc(Br)c2)c2c(n1)[nH]c1ccccc12
32 | 105 to 106 °C | CC(C)NC(C)C(=O)Nc1cccc2c1C(=O)c1c(NC(=O)C(C)NC(C)C)cccc1C2=O (stereo not given)
33 | 170 to 171 °C | COC(=O)c1cc(C(=O)OC)cc(P(=O)(c2ccccc2)c2ccccc2)c1
34 | 175 to 177 °C | O=C(CC(=O)c1ccc(C(=O)CC(=O)c2ccccc2)cc1)c1ccccc1
35 | 134 to 135 °C | CCC(CC)Nc1nc(C)nc(Oc2c(C)cc(C)nc2C)c1[N+](=O)[O-]
36 | 258 to 260 °C | N#Cc1cnn2c(-c3cccnc3)ccnc12
37 | 114 to 116 °C | CS(=O)(=O)c1ccc(Oc2ccc(OCC#N)cc2)cc1
38 | 85 to 90 °C | O=c1oc(-c2ccccc2)cc(O)c1SCc1cccc(OCCc2ccccc2)c1

The remaining lines, values behind:

Row | SMILES | melting point
39 | COc1ccc(-c2ccc3cnc(Nc4ccc(N5CCN(CC(N)=O)CC5)c(F)c4)nn23)cn1 | 217 °C
40 | CC1CC(=O)c2cc(F)ccc2S1(=O)=O (stereo not given) | 113 to 114 °C
41 | COc1cccc(-c2cc(=O)cc(N3CCOCC3)o2)c1 | 115 to 117 °C
42 | CC(CC(O)(CNc1ccc2c(c1)COC2=O)C(F)(F)F)c1ccccc1 (stereo not given) | 110 °C
43 | CCN1c2ncc(CCc3cnc4ccccc4c3)cc2C(=O)N(C)c2ccc(F)nc21 | 154 to 156 °C
44 | CN(c1ccc(OC(F)(F)C(F)F)cc1)c1c([N+](=O)[O-])cc([N+](=O)[O-])cc1C(F)(F)F | 91 to 92 °C
45 | N#CC(F)(F)C(O)(Cn1cncn1)c1ccc(F)cc1F (stereo not given) | 130 to 132 °C
46 | CCCCc1oc2ccccc2c1C=NOCCCOc1ccc(C(=O)O)cc1-c1ccc(C(F)(F)F)cc1 | 140 °C
47 | Cc1c(C)c2c(c(C)c1N)CC(C)(CN1CCN(C(=O)CC(c3ccccc3)c3ccccc3)CC1)O2 (stereo not given) | 77 to 78 °C
48 | CC1(C)C2CCC(C2)C1(C)F (stereo not given) | 93 to 94 °C
49 | Nc1ccc2c(c1)C(=O)N(c1cccc(C(=O)O)c1)C2=O | 306 to 308 °C
50 | COC(=O)c1cc(C23CC4CC(CC(C4)C2)C3)c(OC)cc1F | 82 to 88 °C
51 | O=C1CCc2ccc(OCCCl)cc21 | 76 to 80 °C
52 | NS(=O)(=O)c1cc2cc(C(=O)NCC(O)CO)sc2s1 (stereo not given) | 117 to 118 °C
53 | COc1cc(Nc2c(C#N)cnc3ccc(/C=C/CCN4CCOCC4)cc23)c(Cl)cc1Cl | 95 to 96 °C
54 | O=C1CCC(=O)N1c1cccc2ccccc12 | 154 °C
55 | O=C(O)c1cccc2c1CCc1cc(C(F)(F)F)ccc1S2 | 178 to 180 °C
56 | COC(=O)c1ccc(SC(Cn2ccnc2)c2ccccc2C(F)(F)F)cc1 (stereo not given) | 121 to 126 °C
57 | c1cc(N2CCNCC2)cnn1 | > 300 °C
58 | COc1ccc(CN(C)CCCSc2ccc(NC(=O)c3cccc4c(=O)c5cccc(F)c5[nH]c34)cc2)cc1OC | 120 to 130 °C
59 | C[C@@H](N(CCNC(=O)OC(C)(C)C)C(=O)c1ccc(C(F)(F)F)cc1)[C@](O)(Cn1cncn1)c1ccc(F)cc1F (relative stereo) | 135 to 143 °C
60 | CSC(=NC#N)NCCSCc1ccc(Nc2ccccc2)nc1 | 180 to 182 °C
61 | O=C(O)[C@H](Cc1ccc(-c2ccccc2)cc1)NCP(=O)(Oc1ccccc1)Oc1ccccc1 | 118 to 119 °C

Row | SMILES | melting point
62 | c1ccc2c(c1)Oc1ccccc1-n1nnnc1-2 | 206 to 208 °C
63 | COC(=O)C=CCC1C(=O)N2C(C(=O)OCC(Cl)(Cl)Cl)=CCC12 (stereo not given) | 101 to 102 °C
64 | CCc1c(-c2ccc(O)cc2)c2c(COC)cc3cccc1n32 | > 130 °C
65 | COc1cc(OC)c(-c2cc3ccccc3n2C(=O)OC(C)(C)C)cc1/C=C/C(=O)c1ccc(C(=O)O)cc1 | 182 to 183 °C
66 | COCCOc1ccc(-c2cncc(C#N)c2Nc2ccc3[nH]ccc3c2C)cc1OC | 208 to 210 °C
67 | CCOC(=O)c1cc2c3ccccc3nc(C)n2c1 | 113 to 116 °C
68 | Cc1cccc(Nn2c(-c3ccccc3)c(C)[nH]c2=S)c1 | 206 °C
69 | Cn1cnc2nc(C#Cc3ccccc3)nn2c1=S | 290 to 295 °C
70 | O=C(O)[C@@H]1CCCN1C(=O)c1cc2cc3c(cc2c2cc(O)ccc12)OCO3 | 230 to 231 °C
71 | COC(=O)c1ccc(Cn2c(C)nc3ccccc32)cc1 | 100 to 101 °C
72 | COc1ccc2cc(C(=O)O)sc(=O)c2c1 | 291 to 292 °C
73 | NCC1CN(c2cc(F)c(-c3cccnc3)c(F)c2)C(=O)O1 (stereo not given) | 143 to 145 °C
74 | CC(C)(C)c1ccc(C(=O)Nc2cn3nc(-n4cnc(CO)c4)ccc3n2)cc1 | 298 to 301 °C
75 | CC(C)C[C@H](NC(=O)OCc1ccccc1)C(=O)N[C@@H](CCc1ccccc1)C(=O)CSCc1ccco1 | 73 to 77 °C
76 | CCN1CS(=O)c2cccc(Cl)c21 (stereo not given) | 94 to 98 °C
77 | Nc1cc(SC2=CCCCC2)ccc1[N+](=O)[O-] | 100 to 102 °C
78 | CCCCCCC(C(=O)O)N1Cc2cc(-c3ccccc3-c3nn[nH]n3)ccc2N1 (stereo not given) | 113 to 120 °C
79 | CNC(=O)CCn1ncccc1=O | 94 to 96 °C
80 | CC(C)OC(CC#N)=NC#N | 66.5 °C
81 | OC1CCCCC1N1CCC(Cc2ccc(Cl)cc2)CC1 (stereo not given) | 69.1 to 70.4 °C
82 | N#CCCNC(=O)c1cccc(-c2cccc3oc(Cc4cccc(C(F)(F)F)c4)nc23)c1 | 117 to 118 °C
83 | CCCC=NNc1cc2c(nn1)CCN(C(=O)c1ccc(-c3ccccc3)cc1)C2 | 260 to 262 °C
84 | O=[N+]([O-])c1ccc(-c2cc[nH]n2)cc1 | 196 to 197 °C

Row | SMILES | melting point
85 | Cn1c(C(F)(F)F)cc(=O)n(-c2ccc3snc(C(Cl)Cl)c3c2)c1=O | 148 to 149 °C
86 | COc1cc(C(C)=O)ccc1-c1ccc(F)cc1 | 75 to 77 °C
87 | CC(=O)NCCCc1cccc2c1CCO2 | 66 to 67 °C
88 | COP(=O)(OC)C(C)NC(=O)C(C)NC(=O)C(C)NC(=O)CNC(C)(C)C (stereo not given) | 148 to 152 °C
89 | Cc1nc2cccc(O)c2o1 | 152 to 154 °C
90 | CC1=NCN(c2cc(Br)cs2)O1 | 66 to 67 °C
91 | COC(C)(C)O[C@H]1C(=O)N[C@H]1c1ccccc1 | 136 to 137 °C
92 | ClCCOc1cccc2c1OCCO2 | 73 °C
93 | COc1ccc(F)c2c(O)c(C=O)ccc12 | 156 to 158 °C
94 | BrCc1c(Br)csc1Br | 89 to 90 °C
95 | CC(=O)NCc1ccc2c(c1)N(C1CCN(CCCc3ccc(F)cc3)CC1)CC2 | 128 to 130 °C
96 | CC(C#N)(c1ccccc1)c1ccc(Cl)nn1 (stereo not given) | 116 to 118 °C
97 | Nc1nc(N)c(N=O)c(OCC2CC=CCC2)n1 (stereo not given) | 237 °C
98 | Ic1cc(I)cc(Cc2cc(I)cc(I)c2)c1 | 104 to 107 °C
99 | CC(=Cc1cc(-n2[nH]c3c(c2=O)CCCC3)ccc1Cl)C(=O)O | 278 °C
100 | COc1ccccc1Sc1c(Cl)ncnc1Cl | 103 °C
101 | COC(=O)c1nc(-c2ccc(Cl)cc2)c(Cl)c(N)c1OC | 139 to 141 °C
102 | CCCCC[C@@H](CC(=O)NO)C(=O)N[C@H](CC(C)C)C(=O)N[C@@H](C)C(N)=O | 134 to 136 °C
103 | CSC1=NC2=NC3=C(CNCC3=O)CN2N1 | 266 to 269 °C
104 | CCc1ccc2c(c1)cc(C(=O)Nc1nc(-c3c(OC)cc(C)cc3OC)n(CCC3CCCCC3)n1)n2CC(=O)O | 198 °C
105 | Cn1nc(-c2ccc(N)c([N+](=O)[O-])c2)c2ccccc21 | 231 °C
